{"source": "paper PMC7692634", "about": "“Structural Basis of Inhibition of the Pioneer Transcription Factor NF-Y by Suramin” (Cells, 2020)", "key": {"[1]": {"target": "T1, NF-Yd (NF-YB/NF-YC histone fold domain dimer, YB/YCmd) (Homo sapiens, UniProt P25208+Q13952)", "T1 construct": "gene NFYB; minimal histone fold domains, NF-YB aa 49-141 with N-terminal 6His (thrombin-cleaved), NF-YC aa 27-120; coexpressed in E. coli BL21(DE3)", "T1 sequence (P25208 51-143)": "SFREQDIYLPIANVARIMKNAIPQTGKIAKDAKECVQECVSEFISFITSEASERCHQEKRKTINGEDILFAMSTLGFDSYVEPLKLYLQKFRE", "T1 sequence (Q13952 27-120)": "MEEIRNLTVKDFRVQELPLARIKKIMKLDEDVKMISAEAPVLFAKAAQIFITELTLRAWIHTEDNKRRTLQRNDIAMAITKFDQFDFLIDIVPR", "assay": "ITC", "type": "binding"}, "[2]": {"target": "T2, NF-Yd/YA (reconstituted NF-Y trimer with YA3) (Homo sapiens, UniProt P25208+Q13952)", "T2 construct": "gene NFYB; NF-Yd (NF-YB 49-141/NF-YC 27-120, His-tag cut) mixed with separately purified NF-YA aa 239-347, C-terminal His-tag; E. coli BL21(DE3); with Nuclear transcription factor Y subunit alpha", "T2 sequence (P23511 239-347 partner, one chain of several)": "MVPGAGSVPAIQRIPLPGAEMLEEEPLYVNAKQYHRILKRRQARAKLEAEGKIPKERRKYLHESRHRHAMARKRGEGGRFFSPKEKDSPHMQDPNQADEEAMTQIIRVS", "assay": "EMSA inhibition of DNA binding", "conditions": "40 nM protein, 20 nM Cy5 HSP70 CCAAT probe, pH 7.5, 5 mM MgCl2, 30 °C; suramin 50 and 100 µM"}, "[3]": {"target": "T3, NF-Yt (NF-Ymd, minimal domain NF-Y trimer) (Homo sapiens, UniProt P25208+Q13952)", "T3 construct": "gene NFYB; minimal domains NF-YB 49-141, NF-YC 27-120, NF-YA 262-332 with C-terminal 6His (thrombin-cleaved); coexpressed in E. coli BL21(DE3); with Nuclear transcription factor Y subunit alpha", "T3 sequence (P23511 262-332 partner, one chain of several)": "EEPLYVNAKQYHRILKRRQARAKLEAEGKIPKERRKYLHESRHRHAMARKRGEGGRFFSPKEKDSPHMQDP", "assay": "STD NMR; EMSA inhibition of DNA binding", "conditions": "STD NMR: 25 µM protein, 1 mM suramin, 10 mM Tris-DCl pH 8, 150 mM NaCl, 25 °C; EMSA: 40 nM protein, 20 nM HSP70 CCAAT probe, pH 7.5, 30 °C"}}}
{"smiles": "Cc1ccc(C(=O)Nc2ccc(S(=O)(=O)O)c3cc(S(=O)(=O)O)cc(S(=O)(=O)O)c23)cc1NC(=O)c1cccc(NC(=O)Nc2cccc(C(=O)Nc3cc(C(=O)Nc4ccc(S(=O)(=O)O)c5cc(S(=O)(=O)O)cc(S(=O)(=O)O)c45)ccc3C)c2)c1", "note": "[suramin]", "values": [{"measurement": "Kd", "setting": "[1]", "value": "2900 ± 700", "unit": "nM"}, {"measurement": "EMSA inhibition of DNA binding", "setting": "[2]", "value": "suramin addition substantially decreased the formation of NF-Y-bound DNA complexes, in a dose-dependent manner"}, {"measurement": "STD NMR; EMSA inhibition of DNA binding", "setting": "[3]", "value": "demonstrates the interaction of the compound with both the dimer and the trimer"}]}
